{
  "source": "paper PMC10647704",
  "about": "(Molecules, 2023)",
  "key": {"[1]": {"test_system": "C. albicans S2 (FLU-resistant)", "assay": "microbe, parasite or virus in culture", "type": "cell-based", "conditions": "read-out: MIC, colorimetric assay"}, "[2]": {"test_system": "C. albicans S2 (FLU-resistant)", "assay": "microbe, parasite or virus in culture", "type": "cell-based"}, "[3]": {"conditions": "Candida albicans, 48 h, read-out: Turbidity Assay IC50 C. albicans S2"}, "[4]": {"conditions": "Candida albicans, 24 h, read-out: MIC, turbidity assay"}, "[5]": {"conditions": "Candida albicans, 48 h, read-out: MIC, turbidity assay"}},
  "note": "Where two headings read alike, the source gives them in different places.",
  "data": [
    {"smiles": "C[C@H]1[C@H](n2[se]c3ccccc3c2=O)C[C@@H]2C[C@H]1C2(C)C", "note": "[CHB2]", "values": [
      {"measurement": "MIC", "setting": "[1]; Candida albicans, 24 h", "value": 6.3, "unit": "µM"},
      {"measurement": "MIC", "setting": "[1]; Candida albicans, 48 h", "value": 3.1, "unit": "µM"},
      {"measurement": "IC50", "setting": "[2]; [3]", "value": "6.2 ± 0.1", "unit": "µM"}
    ]},
    {"smiles": "CC1(C)C2CCC(Cn3[se]c4ccccc4c3=O)C1C2", "note": "(single isomer, unassigned; (-)) [CHB3]", "values": [
      {"measurement": "MIC", "setting": "[1]; Candida albicans, 24 h", "value": 25, "unit": "µM"},
      {"measurement": "MIC", "setting": "[1]; Candida albicans, 48 h", "value": 25, "unit": "µM"},
      {"measurement": "MIC", "setting": "[2]; [4]", "value": 50, "unit": "µM"},
      {"measurement": "MIC", "setting": "[2]; [5]", "value": 25, "unit": "µM"},
      {"measurement": "IC50", "setting": "[2]; [3]", "value": "15.1 ± 0.2", "unit": "µM"}
    ]},
    {"smiles": "CC(C)[C@@H]1CC[C@@H](C)C[C@H]1n1[se]c2ccccc2c1=O", "note": "[CHB6, (−)-N-(1R,2S,5R)-menthyl-1,2-benzizoselenazol-3(2H)-one]", "values": [
      {"measurement": "MIC", "setting": "[1]; Candida albicans, 24 h", "value": 6.3, "unit": "µM"},
      {"measurement": "MIC", "setting": "[1]; Candida albicans, 48 h", "value": 6.3, "unit": "µM"},
      {"measurement": "MIC", "setting": "[2]; [4]", "value": 3.1, "unit": "µM"},
      {"measurement": "MIC", "setting": "[2]; [5]", "value": 3.1, "unit": "µM"},
      {"measurement": "IC50", "setting": "[2]; [3]", "value": "1.8 ± 0.1", "unit": "µM"}
    ]},
    {"smiles": "C[C@@H]1[C@@H](n2[se]c3ccccc3c2=O)C[C@H]2C[C@@H]1C2(C)C", "note": "[CHB1]", "values": [
      {"measurement": "MIC", "setting": "[2]; [4]", "value": 3.1, "unit": "µM"},
      {"measurement": "MIC", "setting": "[2]; [5]", "value": 3.1, "unit": "µM"},
      {"measurement": "IC50", "setting": "[2]; [3]", "value": "1.8 ± 0.1", "unit": "µM"}
    ]},
    {"smiles": "O=c1c2ccccc2[se]n1-c1ccccc1", "note": "[EB, Ebselen, reference compound]", "values": [
      {"measurement": "MIC", "setting": "[1]; C. albicans S2, 24 h, resazurin", "value": 25.0, "unit": "µM"},
      {"measurement": "MIC", "setting": "[1]; C. albicans S2, 48 h, resazurin", "value": 25.0, "unit": "µM"},
      {"measurement": "MIC", "setting": "[1]; Candida albicans, C. albicans S2, 24 h, resazurin", "value": 25, "unit": "µM"},
      {"measurement": "MIC", "setting": "[1]; Candida albicans, C. albicans S2, 48 h, resazurin", "value": 25, "unit": "µM"},
      {"measurement": "IC50", "setting": "[2]; Abs600nm at 48 h; read-out: Turbidity Assay IC50 C. albicans S2", "value": "14.3 ± 0.46", "unit": "µM"},
      {"measurement": "MIC", "setting": "[2]; C. albicans S2, 24 h; for FLU the lowest concentration causing 70% decrease in turbidity; read-out: MIC, turbidity assay", "value": 25.0, "unit": "µM"},
      {"measurement": "MIC", "setting": "[2]; C. albicans S2, 48 h; for FLU the lowest concentration causing 70% decrease in turbidity; read-out: MIC, turbidity assay", "value": 25.0, "unit": "µM"},
      {"measurement": "MIC", "setting": "[2]; Candida albicans, 24 h; read-out: MIC, turbidity assay", "value": 25, "unit": "µM"},
      {"measurement": "IC50", "setting": "[2]; Candida albicans, 48 h, Abs600nm at 48 h; read-out: Turbidity Assay IC50 C. albicans S2", "value": "~14", "unit": "µM"},
      {"measurement": "MIC", "setting": "[2]; Candida albicans, 48 h; read-out: MIC, turbidity assay", "value": 25, "unit": "µM"}
    ]},
    {"smiles": "C[C@@H]1C[C@H]2[C@@H](C[C@H]1n1[se]c3ccccc3c1=O)C2(C)C", "note": "[CHB5]", "values": [
      {"measurement": "IC50", "setting": "[2]; [3]", "value": "14.4 ± 0.5", "unit": "µM"}
    ]},
    {"smiles": "C[C@H]1CC[C@@H]2[C@H]([C@@H]1n1[se]c3ccccc3c1=O)C2(C)C", "note": "[CHB4]", "values": [
      {"measurement": "MIC", "setting": "[1]; Candida albicans, 24 h", "value": 3.1, "unit": "µM"},
      {"measurement": "MIC", "setting": "[1]; Candida albicans, 48 h", "value": 3.1, "unit": "µM"},
      {"measurement": "MIC", "setting": "[2]; [4]", "value": 3.1, "unit": "µM"},
      {"measurement": "MIC", "setting": "[2]; [5]", "value": 3.1, "unit": "µM"},
      {"measurement": "IC50", "setting": "[2]; [3]", "value": "1.8 ± 0.1", "unit": "µM"}
    ]}
  ]
}
